Measurements as given in patent US20020137929A1, “1 - (3-heterocyclylphenyl) isothiourea, -isourea, -guanidine and -amidine herbicidal agents” (Intellectual Property Department, BASF Aktiengesellschaft, priority 1998, published 2002).

Experiments:
[1] = system: CHEAL (Lambsquarters, Common); assay: Preemergence herbicidal evaluation; type: in vivo, Chenopodium album; settings: rated 4-5 weeks after treatment
Summary of the method: (§1)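 Seeds were mixed with potting soil and planted on about one inch of soil, then sprayed with test compound in aqueous acetone at about 0.0156 to 0.500 kg per hectare. Plants grew under standard greenhouse care and were visually rated 0-9 against untreated controls 4-5 weeks post-treatment.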

CYPIR (Rice Flatsedge) = assay: Postemergence weed control under flooded paddy conditions; type: in vivo, Cyperus iria; settings: postemergence weeds, 3-4 weeks after treatment
Summary of the method: (§2)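 Weeds 3 to 5 cm tall and rice seedlings at the 1.5 to 2.5 leaf stage were flooded, with water held 1.5 to 3 cm above the soil. Compounds in 50/50 v/v aqueous/acetone went into the flood water at about 0.0313 to 0.500 kg/ha. Visual 0-9 ratings versus control were made 3 to 4 weeks later.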

[2] = system: ECHORC (Watergrass (Calif.)); assay: Preemergence weed control under flooded paddy conditions; type: in vivo, Echinochloa oryzoides; settings: rated 3-4 weeks after treatment
Summary of the method: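 Silt loam, seeds in top 0.5 cm; flood held 1.5-3 cm; test cpd as acetone/water 50/50 into flood water, ~0.0313-0.500 kg/ha a.i.; greenhouse 3-4 wk; visual 0-9 score vs control.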

ECHCG (Barnyardgrass) = assay: Preemergence herbicidal evaluation; type: in vivo, Echinochloa crus-galli; settings: rated 4-5 weeks after treatment
Summary of the method: as §1

SETVI (Foxtail, Green) = assay: Preemergence herbicidal evaluation; type: in vivo, Setaria viridis; settings: rated 4-5 weeks after treatment
Summary of the method: as §1

[3] = system: TRZAWR (Wheat, Winter, cv Riband); assay: Postemergence herbicidal evaluation; type: in vivo, Triticum aestivum; settings: postemergence
Summary of the method: (§3)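 First, seedlings were raised for around two weeks. Next, test material in 50/50 acetone/water containing 0.5% TWEEN 20 was sprayed through a nozzle at 40 psi, equivalent to about 0.0156–0.500 kg/ha. Finally, after 4–5 weeks in the greenhouse, plants were rated 0–9.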

[4] = system: IPOHE (Morningglory, Ivyleaf); assay: Preemergence herbicidal evaluation; type: in vivo, Ipomoea hederacea; settings: rated 4-5 weeks after treatment
Summary of the method: as §1

[5] = system: TRZAWR (Wheat, Winter, cv Riband); assay: Preemergence herbicidal evaluation; type: in vivo, Triticum aestivum; settings: rated 4-5 weeks after treatment
Summary of the method: as §1

MOOVA (Monochoria) = assay: Preemergence weed control under flooded paddy conditions; type: in vivo, Monochoria vaginalis; settings: rated 3-4 weeks after treatment
Summary of the method: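 First, seeds or propagules go into the top 0.5 cm of silt loam; next, water is held 1.5 to 3 cm over the soil; then compound (50/50 acetone/water) is pipetted into it at about 0.0313 to 0.500 kg/ha; finally plants are rated visually 0-9 after three to four weeks.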

[6] = system: ECHORC (Watergrass (Calif.)); assay: Postemergence weed control under flooded paddy conditions; type: in vivo, Echinochloa oryzoides; settings: postemergence weeds, 3-4 weeks after treatment
Summary of the method: as §2

[7] = system: IPOHE (Morningglory, Ivyleaf); assay: Postemergence herbicidal evaluation; type: in vivo, Ipomoea hederacea; settings: postemergence
Summary of the method: as §3

ORYSAT (Rice, Tebonnet) = assay: Preemergence herbicidal evaluation; type: in vivo, Oryza sativa, (L.) Tebonnet; settings: rated 4-5 weeks after treatment
Summary of the method: as §1

ABUTH (Velvetleaf) = assay: Postemergence herbicidal evaluation; type: in vivo, Abutilon theophrasti; settings: postemergence
Summary of the method: as §3

Structure (SMILES): CCOC(=O)CN1C(=O)CO/C1=N/c1cc(-n2c(=O)cc(C(F)(F)F)n(C)c2=O)c(F)cc1Cl [Compound 22, Ethyl 2-{{2-chloro-5-[3,6-dihydro-3-methyl-2,6-dioxo-4-(trifluoromethyl)-1(2H)-pyrimidinyl]-4-fluorophenyl}imino}-4-oxo-3-oxazolidineacetate]
- CHEAL preemergence herbicidal rating ([1]; rate 0.0156 kg/ha): 9.0
- CHEAL preemergence herbicidal rating ([1]; rate 0.0313 kg/ha): 9.0
- CHEAL preemergence herbicidal rating ([1]; rate 0.0625 kg/ha): 9.0
- CHEAL preemergence herbicidal rating ([1]; rate 0.1250 kg/ha): 9.0
- CHEAL preemergence herbicidal rating ([1]; rate 0.2500 kg/ha): 9.0
- Herbicidal rating CYPIR (CYPIR (Rice Flatsedge); rate 0.1160 kg/ha): 0.0
- Herbicidal rating CYPIR (CYPIR (Rice Flatsedge); rate 0.2310 kg/ha): 0.0
- Herbicidal rating CYPIR (CYPIR (Rice Flatsedge); rate 0.4630 kg/ha): 5.0
- Herbicidal rating ECHORC ([2]; 0.1160 kg/ha): 6.0
- Herbicidal rating ECHORC ([2]; 0.2310 kg/ha): 9.0
- Herbicidal rating ECHORC ([2]; 0.4630 kg/ha): 9.0
- ECHCG preemergence herbicidal rating (ECHCG (Barnyardgrass); rate 0.0156 kg/ha): 0.0
- ECHCG preemergence herbicidal rating (ECHCG (Barnyardgrass); rate 0.0313 kg/ha): 0.0
- ECHCG preemergence herbicidal rating (ECHCG (Barnyardgrass); rate 0.0625 kg/ha): 0.0
- ECHCG preemergence herbicidal rating (ECHCG (Barnyardgrass); rate 0.1250 kg/ha): 3.0
- ECHCG preemergence herbicidal rating (ECHCG (Barnyardgrass); rate 0.2500 kg/ha): 9.0
- SETVI preemergence herbicidal rating (SETVI (Foxtail, Green); rate 0.0156 kg/ha): 0.0
- SETVI preemergence herbicidal rating (SETVI (Foxtail, Green); rate 0.0313 kg/ha): 7.0
- SETVI preemergence herbicidal rating (SETVI (Foxtail, Green); rate 0.0625 kg/ha): 9.0
- SETVI preemergence herbicidal rating (SETVI (Foxtail, Green); rate 0.1250 kg/ha): 9.0
- SETVI preemergence herbicidal rating (SETVI (Foxtail, Green); rate 0.2500 kg/ha): 9.0
- TRZAWR herbicidal rating ([3]; rate 0.0158 kg/ha): 4.0
- TRZAWR herbicidal rating ([3]; rate 0.0315 kg/ha): 3.5
- TRZAWR herbicidal rating ([3]; rate 0.0630 kg/ha): 5.0
- IPOHE preemergence herbicidal rating ([4]; rate 0.0156 kg/ha): 0.0
- IPOHE preemergence herbicidal rating ([4]; rate 0.0313 kg/ha): 2.0
- IPOHE preemergence herbicidal rating ([4]; rate 0.0625 kg/ha): 9.0
- IPOHE preemergence herbicidal rating ([4]; rate 0.1250 kg/ha): 9.0
- IPOHE preemergence herbicidal rating ([4]; rate 0.2500 kg/ha): 9.0
- TRZAWR preemergence herbicidal rating ([5]; rate 0.0156 kg/ha): 0.0
- TRZAWR preemergence herbicidal rating ([5]; rate 0.0313 kg/ha): 0.0
- TRZAWR preemergence herbicidal rating ([5]; rate 0.0625 kg/ha): 1.0
- TRZAWR preemergence herbicidal rating ([5]; rate 0.1250 kg/ha): 5.0
- TRZAWR preemergence herbicidal rating ([5]; rate 0.2500 kg/ha): 7.0
- Herbicidal rating MOOVA (MOOVA (Monochoria); 0.1160 kg/ha): 9.0
- Herbicidal rating MOOVA (MOOVA (Monochoria); 0.2310 kg/ha): 9.0
- Herbicidal rating MOOVA (MOOVA (Monochoria); 0.4630 kg/ha): 9.0
- Herbicidal rating ECHORC ([6]; rate 0.1160 kg/ha): 6.0
- Herbicidal rating ECHORC ([6]; rate 0.2310 kg/ha): 9.0
- Herbicidal rating ECHORC ([6]; rate 0.4630 kg/ha): 9.0
- IPOHE herbicidal rating ([7]; rate 0.0158 kg/ha): 9.0
- IPOHE herbicidal rating ([7]; rate 0.0315 kg/ha): 9.0
- IPOHE herbicidal rating ([7]; rate 0.0630 kg/ha): 9.0
- ORYSAT preemergence herbicidal rating (ORYSAT (Rice, Tebonnet); rate 0.0156 kg/ha): 0.0
- ORYSAT preemergence herbicidal rating (ORYSAT (Rice, Tebonnet); rate 0.0313 kg/ha): 0.0
- ORYSAT preemergence herbicidal rating (ORYSAT (Rice, Tebonnet); rate 0.0625 kg/ha): 0.0
- ORYSAT preemergence herbicidal rating (ORYSAT (Rice, Tebonnet); rate 0.1250 kg/ha): 5.0
- ORYSAT preemergence herbicidal rating (ORYSAT (Rice, Tebonnet); rate 0.2500 kg/ha): 8.0
- ABUTH herbicidal rating (ABUTH (Velvetleaf); rate 0.0158 kg/ha): 9.0
- ABUTH herbicidal rating (ABUTH (Velvetleaf); rate 0.0315 kg/ha): 9.0
- ABUTH herbicidal rating (ABUTH (Velvetleaf); rate 0.0630 kg/ha): 9.0

Structure (SMILES): CN(C)N1C(=O)CSC1=Nc1cc(-n2c(=O)cc(C(F)(F)F)n(C)c2=O)c(F)cc1Cl [Compound 23, 3-{4-Chloro-5-{[3-(dimethylamino)-4-oxo-2-thiazolidinylidine]amino}-2-fluorophenyl}-1-methyl-6-(trifluoromethyl)-2,4(1H,3H)-pyrimidinedione]
- CHEAL preemergence herbicidal rating ([1]; rate 0.0156 kg/ha): 0.0
- CHEAL preemergence herbicidal rating ([1]; rate 0.0313 kg/ha): 1.0
- CHEAL preemergence herbicidal rating ([1]; rate 0.0625 kg/ha): 7.0
- CHEAL preemergence herbicidal rating ([1]; rate 0.1250 kg/ha): 9.0
- CHEAL preemergence herbicidal rating ([1]; rate 0.2500 kg/ha): 9.0
- Herbicidal rating CYPIR (CYPIR (Rice Flatsedge); rate 0.1160 kg/ha): 0.0
- Herbicidal rating CYPIR (CYPIR (Rice Flatsedge); rate 0.2310 kg/ha): 0.0
- Herbicidal rating CYPIR (CYPIR (Rice Flatsedge); rate 0.4630 kg/ha): 0.0
- Herbicidal rating ECHORC ([2]; 0.1160 kg/ha): 4.0
- Herbicidal rating ECHORC ([2]; 0.2310 kg/ha): 4.0
- Herbicidal rating ECHORC ([2]; 0.4630 kg/ha): 4.0
- ECHCG preemergence herbicidal rating (ECHCG (Barnyardgrass); rate 0.0156 kg/ha): 0.0
- ECHCG preemergence herbicidal rating (ECHCG (Barnyardgrass); rate 0.0313 kg/ha): 1.0
- ECHCG preemergence herbicidal rating (ECHCG (Barnyardgrass); rate 0.0625 kg/ha): 2.0
- ECHCG preemergence herbicidal rating (ECHCG (Barnyardgrass); rate 0.1250 kg/ha): 4.0
- ECHCG preemergence herbicidal rating (ECHCG (Barnyardgrass); rate 0.2500 kg/ha): 6.0
- SETVI preemergence herbicidal rating (SETVI (Foxtail, Green); rate 0.0156 kg/ha): 1.0
- SETVI preemergence herbicidal rating (SETVI (Foxtail, Green); rate 0.0313 kg/ha): 1.0
- SETVI preemergence herbicidal rating (SETVI (Foxtail, Green); rate 0.0625 kg/ha): 5.0
- SETVI preemergence herbicidal rating (SETVI (Foxtail, Green); rate 0.1250 kg/ha): 5.0
- SETVI preemergence herbicidal rating (SETVI (Foxtail, Green); rate 0.2500 kg/ha): 6.0
- TRZAWR herbicidal rating ([3]; rate 0.0158 kg/ha): 2.5
- TRZAWR herbicidal rating ([3]; rate 0.0315 kg/ha): 4.0
- TRZAWR herbicidal rating ([3]; rate 0.0630 kg/ha): 5.0
- IPOHE preemergence herbicidal rating ([4]; rate 0.0156 kg/ha): 0.0
- IPOHE preemergence herbicidal rating ([4]; rate 0.0313 kg/ha): 0.0
- IPOHE preemergence herbicidal rating ([4]; rate 0.0625 kg/ha): 1.0
- IPOHE preemergence herbicidal rating ([4]; rate 0.1250 kg/ha): 5.0
- IPOHE preemergence herbicidal rating ([4]; rate 0.2500 kg/ha): 9.0
- TRZAWR preemergence herbicidal rating ([5]; rate 0.0156 kg/ha): 0.0
- TRZAWR preemergence herbicidal rating ([5]; rate 0.0313 kg/ha): 0.0
- TRZAWR preemergence herbicidal rating ([5]; rate 0.0625 kg/ha): 1.0
- TRZAWR preemergence herbicidal rating ([5]; rate 0.1250 kg/ha): 5.0
- TRZAWR preemergence herbicidal rating ([5]; rate 0.2500 kg/ha): 7.0
- Herbicidal rating MOOVA (MOOVA (Monochoria); 0.1160 kg/ha): 9.0
- Herbicidal rating MOOVA (MOOVA (Monochoria); 0.2310 kg/ha): 9.0
- Herbicidal rating MOOVA (MOOVA (Monochoria); 0.4630 kg/ha): 9.0
- Herbicidal rating ECHORC ([6]; rate 0.1160 kg/ha): 4.0
- Herbicidal rating ECHORC ([6]; rate 0.2310 kg/ha): 4.0
- Herbicidal rating ECHORC ([6]; rate 0.4630 kg/ha): 4.0
- IPOHE herbicidal rating ([7]; rate 0.0158 kg/ha): 4.0
- IPOHE herbicidal rating ([7]; rate 0.0315 kg/ha): 9.0
- IPOHE herbicidal rating ([7]; rate 0.0630 kg/ha): 9.0
- ORYSAT preemergence herbicidal rating (ORYSAT (Rice, Tebonnet); rate 0.0156 kg/ha): 0.0
- ORYSAT preemergence herbicidal rating (ORYSAT (Rice, Tebonnet); rate 0.0313 kg/ha): 0.0
- ORYSAT preemergence herbicidal rating (ORYSAT (Rice, Tebonnet); rate 0.0625 kg/ha): 1.0
- ORYSAT preemergence herbicidal rating (ORYSAT (Rice, Tebonnet); rate 0.1250 kg/ha): 1.0
- ORYSAT preemergence herbicidal rating (ORYSAT (Rice, Tebonnet); rate 0.2500 kg/ha): 7.0
- ABUTH herbicidal rating (ABUTH (Velvetleaf); rate 0.0158 kg/ha): 3.0
- ABUTH herbicidal rating (ABUTH (Velvetleaf); rate 0.0315 kg/ha): 4.0
- ABUTH herbicidal rating (ABUTH (Velvetleaf); rate 0.0630 kg/ha): 5.0
